pIC50: −log10 of the molar value.
Legend:
FGFR3 = target: T1, FGFR3 (Homo sapiens, UniProt P22607); assay: FGFR3 Biochemical Caliper Assay (KinEASE-TK kit); conditions: ratio FGFR3/FGFR2 of the biochemical assay
T1 construct: purchased Carna 08-135
Protocol: (§1) Compounds of the present invention were tested in a FGFR1, FGFR2, and FGFR3 Biochemical Caliper Assay. Enzyme activity was monitored using KinEASE-TK kit (CisBio, Cat.No. 62TK0PEC) according to manufacturer's instructions. […] Final enzyme concentration was 0.2 nM for FGFR1 and FGFR3, 0.07 nM for FGFR2. Compounds were prepared in 10 mM DMSO and serially diluted into 10 concentrations by 3-fold dilution. Prior to the initiation of the reaction by adding TK-substrate/ATP mixture, the compounds were incubated with protein for 10 min at RT. […] Plates were quenched by adding TK-antibody-Cryptate and Sa-XL665 mixture. After 60 min in the stop solution, read the signal on microplate reader (Molecular Devices, i3x), excitation of 320 nm and emission of 615 nm and 665 nm with a […]. IC50 values were calculated using Prism 7 (GraphPad).

FGFR1 = target: T2, FGFR1 (Homo sapiens, UniProt P11362); assay: FGFR1 Biochemical Caliper Assay (KinEASE-TK kit); conditions: ratio FGFR1/FGFR2 of the biochemical assay
T2 construct: purchased Carna 08-133
T2 sequence (P11362 22-822): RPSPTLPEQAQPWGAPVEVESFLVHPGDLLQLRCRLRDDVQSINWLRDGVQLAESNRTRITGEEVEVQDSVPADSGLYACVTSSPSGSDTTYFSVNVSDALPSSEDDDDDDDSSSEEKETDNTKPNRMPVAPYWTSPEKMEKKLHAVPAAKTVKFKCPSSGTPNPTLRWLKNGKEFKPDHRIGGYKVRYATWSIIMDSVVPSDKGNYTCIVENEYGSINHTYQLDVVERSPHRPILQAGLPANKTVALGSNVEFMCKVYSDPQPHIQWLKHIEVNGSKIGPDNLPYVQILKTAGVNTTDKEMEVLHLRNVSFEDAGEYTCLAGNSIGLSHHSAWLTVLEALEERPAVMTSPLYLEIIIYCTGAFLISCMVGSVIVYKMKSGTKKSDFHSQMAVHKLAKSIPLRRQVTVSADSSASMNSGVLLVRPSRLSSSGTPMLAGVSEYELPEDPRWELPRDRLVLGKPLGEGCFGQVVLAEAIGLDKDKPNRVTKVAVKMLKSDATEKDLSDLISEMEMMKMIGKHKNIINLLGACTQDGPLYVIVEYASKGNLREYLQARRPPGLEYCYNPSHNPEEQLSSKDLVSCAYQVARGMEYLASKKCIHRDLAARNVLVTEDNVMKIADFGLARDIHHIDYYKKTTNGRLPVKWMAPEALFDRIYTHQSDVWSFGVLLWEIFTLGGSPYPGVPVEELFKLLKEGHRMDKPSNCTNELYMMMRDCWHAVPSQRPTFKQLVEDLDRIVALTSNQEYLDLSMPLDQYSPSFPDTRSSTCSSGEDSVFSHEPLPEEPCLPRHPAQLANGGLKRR
Protocol: as §1

SNU16 cells = assay: SNU16 Cancer Cell Line Proliferation Assay (CellTiter-Glo); assay type: cell-based; conditions: Homo sapiens, SNU-16, 72 h
Protocol: Compounds of the present invention were also tested in a SNU16 Cancer Cell Line Proliferation Assay.
SNU16 cells were plated in 96-well clear bottom/white plate(Costar, Cat.No. 3610) at 5000 cells/well in 100 μl medium. Test compounds were prepared in a 10 mM DMSO stock solution and serially diluted into 9 concentrations by 3-fold dilution. 0.5 μl of each concentration of compound was added into the cell culture plates and DMSO as a control. The plates were incubated for 72 h at 37° C. and 5% CO2 incubator. 50 μl CellTiter-Glo reagent (Promega, G7572) was added into each well and then the plates were shaken gently for 10 min at room temperature. Luminescence was read on microplate reader (Molecular Devices, i3x), IC50 values were calculated using Prism 7 (GraphPad).

FGFR2 = target: T3, FGFR2 (Homo sapiens, UniProt P21802); assay: FGFR2 Biochemical Caliper Assay (KinEASE-TK kit); conditions: 0.07 nM FGFR2; compound incubated with protein 10 min, reaction 45 min at RT; read-out: FGFR2 Cliper IC50
T3 construct: purchased Carna 08-134
T3 sequence (P21802 22-821): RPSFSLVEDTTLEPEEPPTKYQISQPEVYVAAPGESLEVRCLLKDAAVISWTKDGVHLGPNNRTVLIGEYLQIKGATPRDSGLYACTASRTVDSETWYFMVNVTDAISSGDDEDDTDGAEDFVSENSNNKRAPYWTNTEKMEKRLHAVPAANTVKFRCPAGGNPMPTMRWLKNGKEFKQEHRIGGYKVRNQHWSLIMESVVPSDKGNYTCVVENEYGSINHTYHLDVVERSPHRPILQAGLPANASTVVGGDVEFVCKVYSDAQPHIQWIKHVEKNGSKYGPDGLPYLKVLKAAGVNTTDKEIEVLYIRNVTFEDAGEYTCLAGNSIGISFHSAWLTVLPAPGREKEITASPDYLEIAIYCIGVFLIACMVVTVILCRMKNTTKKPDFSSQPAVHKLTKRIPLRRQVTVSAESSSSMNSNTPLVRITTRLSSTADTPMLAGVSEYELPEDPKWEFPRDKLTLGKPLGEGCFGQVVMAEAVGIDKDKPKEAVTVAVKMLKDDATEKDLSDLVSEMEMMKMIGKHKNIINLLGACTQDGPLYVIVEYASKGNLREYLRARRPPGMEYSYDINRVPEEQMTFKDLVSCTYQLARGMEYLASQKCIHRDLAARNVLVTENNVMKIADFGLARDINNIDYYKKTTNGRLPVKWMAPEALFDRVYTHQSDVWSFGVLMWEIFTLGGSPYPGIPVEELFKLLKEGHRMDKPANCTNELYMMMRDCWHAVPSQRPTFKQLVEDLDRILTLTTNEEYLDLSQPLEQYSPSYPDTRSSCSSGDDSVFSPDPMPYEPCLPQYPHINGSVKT
Protocol: Compounds of the present invention were tested in a FGFR1, FGFR2, and FGFR3 Biochemical Caliper Assay.
as §1, with “Enzyme” for “Compounds of the present invention were tested in a FGFR1, FGFR2, and FGFR3 Biochemical Caliper Assay. Enzyme”

T1 sequence (P22607 23-806): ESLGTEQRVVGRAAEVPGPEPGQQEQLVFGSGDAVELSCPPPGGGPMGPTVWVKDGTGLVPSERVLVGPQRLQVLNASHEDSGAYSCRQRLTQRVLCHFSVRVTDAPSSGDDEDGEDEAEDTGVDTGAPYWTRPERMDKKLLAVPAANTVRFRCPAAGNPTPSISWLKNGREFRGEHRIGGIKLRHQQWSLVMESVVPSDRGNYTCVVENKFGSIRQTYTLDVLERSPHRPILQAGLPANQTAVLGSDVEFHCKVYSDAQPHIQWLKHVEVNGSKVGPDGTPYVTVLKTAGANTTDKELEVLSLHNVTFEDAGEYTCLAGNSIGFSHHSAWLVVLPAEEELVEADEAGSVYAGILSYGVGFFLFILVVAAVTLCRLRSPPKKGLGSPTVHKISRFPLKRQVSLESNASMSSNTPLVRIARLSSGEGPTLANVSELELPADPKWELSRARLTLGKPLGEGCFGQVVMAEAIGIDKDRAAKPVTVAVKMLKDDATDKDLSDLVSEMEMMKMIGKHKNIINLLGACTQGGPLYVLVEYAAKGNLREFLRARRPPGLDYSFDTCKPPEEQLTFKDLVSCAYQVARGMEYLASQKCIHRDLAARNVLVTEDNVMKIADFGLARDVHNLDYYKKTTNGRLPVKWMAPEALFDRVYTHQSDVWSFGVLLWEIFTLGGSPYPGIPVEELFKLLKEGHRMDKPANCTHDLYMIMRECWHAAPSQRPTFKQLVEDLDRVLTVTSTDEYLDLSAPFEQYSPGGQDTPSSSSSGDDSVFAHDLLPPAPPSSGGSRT

SMILES	pIC50 (SNU16 cells)	pIC50 (FGFR2)	Selectivity FGFR3/FGFR2 (FGFR3)	Selectivity FGFR1/FGFR2 (FGFR1)
C=C(F)C(=O)Nc1ccc(-c2nn3ncnc(N)c3c2-c2ccc(C(=O)NCC(F)(F)F)c(OC)c2)c(C)c1 [Compound 101, 4-(4-amino-6-(4-(2-fluoroacrylamido)-2-methylphenyl)pyrazolo[5,1-f][1,2,4]triazin-5-yl)-2-methoxy-N-(2,2,2-trifluoroethyl)benzamide]	≥ 8.00	> 8.30	B (Selectivity of FGFR3/FGFR2 less than 100 but greater than or equal to 25)	A+ (Selectivity of FGFR1/FGFR2 greater or equal to 500)
C=C(F)C(=O)Nc1ccc(-c2nn3ncnc(N)c3c2-c2ccc(C(=O)NCC(F)(F)F)c(OC)c2)c(OC)c1 [Compound 102, 4-(4-amino-6-(4-(2-fluoroacrylamido)-2-methoxyphenyl)pyrazolo[5,1-f][1,2,4]triazin-5-yl)-2-methoxy-N-(2,2,2-trifluoroethyl)benzamide]	≥ 8.00	< 8.00	B (Selectivity of FGFR3/FGFR2 less than 100 but greater than or equal to 25)	B (Selectivity of FGFR1/FGFR2 less than 300 but greater than or equal to 200)
C=C(F)C(=O)Nc1ccc(-c2c(-c3ccc(C(=O)NC4CC4)c(OC)c3)c3c(N)ncc(C#N)c3n2C)cc1 [Compound 104, 4-(4-amino-7-cyano-2-(4-(2-fluoroacrylamido)phenyl)-1-methyl-1H-pyrrolo[3,2-c]pyridin-3-yl)-N-cyclopropyl-2-methoxybenzamide]	≥ 8.00	8.00 to 8.30	A+ (Selectivity of FGFR3/FGFR2 greater or equal to 150)	A+ (Selectivity of FGFR1/FGFR2 greater or equal to 500)
C=CC(=O)Nc1ccc(-c2c(-c3ccc(C(=O)NC4CC4)c(OC)c3)c3c(N)ncc(C#N)c3n2C)cc1 [Compound 105]	≥ 8.00	> 8.30	A (Selectivity of FGFR3/FGFR2 less than 150 but greater than or equal to 100)	A+ (Selectivity of FGFR1/FGFR2 greater or equal to 500)
C=CC(=O)Nc1ccc(-c2c(-c3ccc(C(=O)NCC)c(OC)c3)c3c(N)ncc(C#N)c3n2C)cc1 [Compound 107, 4-(2-(4-acrylamidophenyl)-4-amino-7-cyano-1-methyl-1H-pyrrolo[3,2-c]pyridin-3-yl)-N-ethyl-2-methoxybenzamide]	≥ 8.00	> 8.30	A (Selectivity of FGFR3/FGFR2 less than 150 but greater than or equal to 100)	A+ (Selectivity of FGFR1/FGFR2 greater or equal to 500)
C=CC(=O)Nc1ccc(-c2c(-c3ccc(C(=O)NC(C)C)c(OC)c3)c3c(N)ncc(C#N)c3n2C)cc1 [Compound 108, 4-(2-(4-acrylamidophenyl)-4-amino-7-cyano-1-methyl-1H-pyrrolo[3,2-c]pyridin-3-yl)-N-isopropyl-2-methoxybenzamide]	≥ 8.00	> 8.30	A (Selectivity of FGFR3/FGFR2 less than 150 but greater than or equal to 100)	A+ (Selectivity of FGFR1/FGFR2 greater or equal to 500)
C=CC(=O)Nc1ccc(-c2c(-c3ccc(C(=O)NC4CCCC4)c(OC)c3)c3c(N)ncc(C#N)c3n2C)cc1 [Compound 109, 4-(2-(4-acrylamidophenyl)-4-amino-7-cyano-1-methyl-1H-pyrrolo[3,2-c]pyridin-3-yl)-N-cyclopentyl-2-methoxybenzamide]	≥ 8.00	> 8.30	B (Selectivity of FGFR3/FGFR2 less than 100 but greater than or equal to 25)	A+ (Selectivity of FGFR1/FGFR2 greater or equal to 500)
C=CC(=O)Nc1ccc(-n2nc3c(=O)[nH]nc(N)c3c2-c2ccc(Oc3cccc(C)n3)c(OC)c2)cc1 [Compound 115]	7.30 to 8.00	8.00 to 8.30	A+ (Selectivity of FGFR3/FGFR2 greater or equal to 150)	C (Selectivity of FGFR1/FGFR2 less than 200 but greater than or equal to 100)
C=CC(=O)Nc1ccc(-n2nc3c(=O)[nH]nc(N)c3c2-c2ccc(Oc3nccc(C)n3)c(OC)c2)cc1 [Compound 134, N-(4-(4-amino-3-(3-methoxy-4-((4-methylpyrimidin-2-yl)oxy)phenyl)-7-oxo-6,7-dihydro-2H-pyrazolo[3,4-d]pyridazin-2-yl)phenyl)acrylamide]	< 7.30	> 8.30	A+ (Selectivity of FGFR3/FGFR2 greater or equal to 150)	C (Selectivity of FGFR1/FGFR2 less than 200 but greater than or equal to 100)

Continued, in another order:

pIC50 (SNU16 cells)	pIC50 (FGFR2)	SMILES	Selectivity FGFR3/FGFR2 (FGFR3)	Selectivity FGFR1/FGFR2 (FGFR1)
7.30 to 8.00	8.00 to 8.30	C=C(F)C(=O)Nc1ccc(-n2nc3c(=O)[nH]nc(N)c3c2-c2ccc(C(=O)NC3CCC3)c(OC)c2)cc1 [Compound 137, 4-(4-amino-2-(4-(2-fluoroacrylamido)phe-nyl)-7-oxo-6,7-dihydro-2H-pyrazolo[3,4-d]pyridazin-3-yl)-N-cyclobutyl-2-methoxybenzamide]	A+ (Selectivity of FGFR3/FGFR2 greater or equal to 150)	A+ (Selectivity of FGFR1/FGFR2 greater or equal to 500)
≥ 8.00	> 8.30	C=CC(=O)Nc1ccc(-c2c(-c3ccc(C(=O)NCC(F)(F)F)c(OC)c3)c3c(N)ncc(C#N)c3n2C)c(F)c1 [Compound 150, 4-(2-(4-acrylamido-2-fluorophenyl)-4-amino-7-cyano-1-methyl-1H-pyrrolo[3,2-c]pyridin-3-yl)-2-methoxy-N-(2,2,2-trifluoroethyl)benzamide]	B (Selectivity of FGFR3/FGFR2 less than 100 but greater than or equal to 25)	A+ (Selectivity of FGFR1/FGFR2 greater or equal to 500)
≥ 8.00	8.00 to 8.30	C=C(F)C(=O)Nc1ccc(-c2c(-c3ccc(C(=O)NCC(F)(F)F)c(OC)c3)c3c(N)ncc(C#N)c3n2C)c(F)c1 [Compound 151, 4-(4-amino-7-cyano-2-(2-fluoro-4-(2-fluoroacrylamido)phenyl)-1-methyl-1H-pyrrolo [3,2-c]pyridin-3-yl)-2-methoxy-N-(2,2,2-trifluoroethyl)benzamide]	A+ (Selectivity of FGFR3/FGFR2 greater or equal to 150)	A+ (Selectivity of FGFR1/FGFR2 greater or equal to 500)
≥ 8.00	> 8.30	C=C(F)C(=O)Nc1ccc(-c2nn3ncnc(N)c3c2-c2ccc(C(=O)NC3CC3)c(OC)c2)c(F)c1 [Compound 153, 4-(4-amino-6-(2-fluoro-4-(2-fluoroacrylamido)phenyl)pyrazolo[5,1-f][1,2,4]triazin-5-yl)-N-cyclopropyl-2-methoxybenzamide]	A+ (Selectivity of FGFR3/FGFR2 greater or equal to 150)	A+ (Selectivity of FGFR1/FGFR2 greater or equal to 500)
≥ 8.00	> 8.30	C=CC(=O)Nc1ccc(-c2nn3ncnc(N)c3c2-c2ccc(C(=O)NC3CC3)c(OC)c2)c(OC)c1 [Compound 154, 4-(6-(4-acrylamido-2-methoxyphenyl)-4-aminopyrazolo[5,1-f][1,2,4]triazin-5-yl)-N-cyclopropyl-2-methoxybenzamide]	A (Selectivity of FGFR3/FGFR2 less than 150 but greater than or equal to 100)	A+ (Selectivity of FGFR1/FGFR2 greater or equal to 500)
≥ 8.00	> 8.30	C=CC(=O)Nc1ccc(-c2nn3ncnc(N)c3c2-c2ccc(C(=O)NC3CC3)c(OC)c2)c(F)c1 [Compound 155, 4-(6-(4-acrylamido-2-fluorophenyl)-4-aminopyrazolo[5,1-f] [1,2,4]triazin-5-yl)-N-cyclopropyl-2-methoxybenzamide]	A (Selectivity of FGFR3/FGFR2 less than 150 but greater than or equal to 100)	A+ (Selectivity of FGFR1/FGFR2 greater or equal to 500)
